From ChEMBL document CHEMBL4020736, “Synthesis and biological evaluation of novel selective androgen receptor modulators (SARMs) Part III: Discovery of 4-(5-oxopyrrolidine-1-yl)benzonitrile derivative 2f as a clinical candidate” (Bioorg Med Chem, 2017)

Assays:
Rattus norvegicus [1] = assay: Induction of sexual behavior in castrated CD(SD)IGS rat assessed as pseudopregnancy rate at 1.5 mg/kg, po qd for 21 days measured on day 18 to 21 relative to control; format: functional
[2] = AUC (0 to 24 hrs) in cynomolgus monkey at 1 mg/kg, po by LC-MS/MS analysis; format: ADME, organism-based, Macaca fascicularis; set-up: dose 1 mg/kg, time < 24 hr, route oral; conditions: in vivo
[3] = Clearance in mouse liver microsomes at 1 uM after 60 mins in presence of NADPH by UPLC analysis; format: ADME, microsome; conditions: read-out: CLH
Rattus norvegicus [4] = assay: Induction of sexual behavior in castrated CD(SD)IGS rat assessed as pseudopregnancy rate at 0.5 mg/kg, po qd for 21 days measured on day 18 to 21 relative to control; format: functional
Canis familiaris = assay: Toxicity in Beagle dog administered via oral gavage; set-up: species or system Canis lupus familiaris; conditions: in vivo
[5] = AUC (0 to 24 hrs) in Beagle dog at 0.1 mg/kg, iv by LC-MS/MS analysis; format: ADME, organism-based, Canis lupus familiaris; set-up: time < 24 hr, dose 0.1 mg/kg, route intravenous; conditions: in vivo
Glucocorticoid receptor = target: T1, Glucocorticoid receptor (Homo sapiens, UniProt P04150); assay: Binding affinity to GR (unknown origin)
T1 sequence (P04150 whole entry): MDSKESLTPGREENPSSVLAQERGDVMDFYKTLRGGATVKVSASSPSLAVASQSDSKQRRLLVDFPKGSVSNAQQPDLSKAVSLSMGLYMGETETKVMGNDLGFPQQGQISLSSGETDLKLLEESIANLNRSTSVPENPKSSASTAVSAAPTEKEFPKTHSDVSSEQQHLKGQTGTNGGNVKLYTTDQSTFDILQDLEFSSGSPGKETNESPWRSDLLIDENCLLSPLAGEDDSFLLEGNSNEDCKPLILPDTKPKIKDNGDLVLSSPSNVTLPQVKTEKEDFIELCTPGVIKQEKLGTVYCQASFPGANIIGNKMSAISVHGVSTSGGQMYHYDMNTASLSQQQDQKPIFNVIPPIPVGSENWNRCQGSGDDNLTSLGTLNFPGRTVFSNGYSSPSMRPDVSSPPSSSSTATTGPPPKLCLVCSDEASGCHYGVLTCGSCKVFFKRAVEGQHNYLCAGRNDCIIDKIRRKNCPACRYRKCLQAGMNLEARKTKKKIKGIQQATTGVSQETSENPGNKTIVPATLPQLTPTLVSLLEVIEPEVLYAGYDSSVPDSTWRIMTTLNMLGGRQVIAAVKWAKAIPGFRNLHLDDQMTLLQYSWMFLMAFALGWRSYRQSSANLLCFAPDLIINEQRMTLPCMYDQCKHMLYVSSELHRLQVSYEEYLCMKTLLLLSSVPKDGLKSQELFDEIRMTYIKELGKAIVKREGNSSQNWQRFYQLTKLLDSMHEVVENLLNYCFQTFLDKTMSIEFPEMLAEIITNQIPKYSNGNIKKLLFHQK

Rattus norvegicus [6] = assay: Toxicity in rat administered via oral gavage; conditions: in vivo
[7] = AUC (0 to 24 hrs) in Beagle dog at 1 mg/kg, po by LC-MS/MS analysis; format: ADME, organism-based, Canis lupus familiaris; set-up: time < 24 hr, dose 1 mg/kg, route oral; conditions: in vivo
[8] = Cmax in Beagle dog at 1 mg/kg, po by LC-MS/MS analysis; format: ADME, organism-based, Canis lupus familiaris; set-up: dose 1 mg/kg, route oral; conditions: in vivo
[9] = Tmax in Crl:CD(SD) rat at 1 mg/kg, po by LC-MS/MS analysis; format: ADME, organism-based; conditions: in vivo
[10] = MRT in Beagle dog at 0.1 mg/kg, iv by LC-MS/MS analysis; format: ADME, organism-based, Canis lupus familiaris; conditions: in vivo
[11] = Plasma concentration in Beagle dog at 0.1 mg/kg, iv after 5 mins by LC-MS/MS analysis; format: ADME, organism-based, Canis lupus familiaris
[12] = Clearance in monkey liver microsomes at 1 uM after 60 mins in presence of NADPH by UPLC analysis; format: ADME, Macaca mulatta, microsome; conditions: rhesus monkey, read-out: CLH
[13] = Total clearance in Beagle dog at 0.1 mg/kg, iv by LC-MS/MS analysis; format: ADME, organism-based, Canis lupus familiaris; conditions: in vivo
[14] = Total clearance in cynomolgus monkey at 0.1 mg/kg, iv by LC-MS/MS analysis; format: ADME, organism-based, Macaca fascicularis; conditions: in vivo
[15] = Plasma concentration in cynomolgus monkey at 0.1 mg/kg, iv after 5 mins by LC-MS/MS analysis; format: ADME, organism-based, Macaca fascicularis
[16] = MRT in Crl:CD(SD) rat at 0.1 mg/kg, iv by LC-MS/MS analysis; format: ADME, organism-based; conditions: in vivo
[17] = Volume of distribution at steady state in cynomolgus monkey at 0.1 mg/kg, iv by LC-MS/MS analysis; format: ADME, organism-based, Macaca fascicularis; conditions: in vivo, read-out: Vdss
Rhesus monkey = assay: Toxicity in monkey assessed as convulsion administered via oral gavage; set-up: species or system Macaca mulatta; conditions: in vivo
Progesterone receptor = target: T2, Progesterone receptor (Homo sapiens, UniProt P06401); assay: Agonist activity at PR (unknown origin) by luciferase reporter gene assay
T2 sequence (P06401 whole entry): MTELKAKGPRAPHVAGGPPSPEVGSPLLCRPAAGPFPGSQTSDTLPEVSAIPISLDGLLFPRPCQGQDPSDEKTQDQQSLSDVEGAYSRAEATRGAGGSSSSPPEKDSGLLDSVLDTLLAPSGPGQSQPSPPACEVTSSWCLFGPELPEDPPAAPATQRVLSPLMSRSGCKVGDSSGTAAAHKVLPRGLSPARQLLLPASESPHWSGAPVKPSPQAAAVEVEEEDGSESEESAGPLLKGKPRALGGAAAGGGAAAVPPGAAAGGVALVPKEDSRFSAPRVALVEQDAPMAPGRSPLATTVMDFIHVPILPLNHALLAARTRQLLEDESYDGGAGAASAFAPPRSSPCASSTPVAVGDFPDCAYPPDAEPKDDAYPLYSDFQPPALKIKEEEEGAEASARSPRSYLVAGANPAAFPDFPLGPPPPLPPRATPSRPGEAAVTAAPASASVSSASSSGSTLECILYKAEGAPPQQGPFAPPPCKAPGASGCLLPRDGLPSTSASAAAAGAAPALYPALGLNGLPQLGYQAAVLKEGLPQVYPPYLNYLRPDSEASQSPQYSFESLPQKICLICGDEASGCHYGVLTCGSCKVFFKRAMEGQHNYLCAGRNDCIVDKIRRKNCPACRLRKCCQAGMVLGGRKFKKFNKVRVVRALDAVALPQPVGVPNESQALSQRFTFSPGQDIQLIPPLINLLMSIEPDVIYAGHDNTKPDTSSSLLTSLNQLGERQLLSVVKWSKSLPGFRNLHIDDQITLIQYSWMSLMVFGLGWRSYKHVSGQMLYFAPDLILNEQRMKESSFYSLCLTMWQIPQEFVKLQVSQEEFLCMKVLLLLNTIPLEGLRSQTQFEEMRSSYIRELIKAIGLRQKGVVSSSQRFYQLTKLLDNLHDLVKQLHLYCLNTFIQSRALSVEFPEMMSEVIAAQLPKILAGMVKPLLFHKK

[18] = Plasma concentration in Crl:CD(SD) rat at 0.1 mg/kg, iv after 5 mins by LC-MS/MS analysis; format: ADME, organism-based
[19] = Volume of distribution at steady state in Beagle dog at 0.1 mg/kg, iv by LC-MS/MS analysis; format: ADME, organism-based, Canis lupus familiaris; conditions: in vivo, read-out: Vdss
[20] = Oral bioavailability in cynomolgus monkey at 1 mg/kg by LC-MS/MS analysis; format: ADME, organism-based, Macaca fascicularis; conditions: in vivo

Compound `CC[C@H]1[C@@H](O)CC(=O)N1c1ccc(C#N)c(C(F)(F)F)c1` has an Activity (Rattus norvegicus [1]) of 100%, an AUC(0-t) at 24 h [2] of 0.558 µg·h/mL and a microsomal CLint at 1 µM [3] of 3 µL/min/mg. The Activity (Rattus norvegicus [4]) was 100%, the Activity (Canis familiaris) was “Non-Toxic” and the AUC(0-t) at 24 h [5] was 0.15 µg·h/mL. For the same compound, the IC50 (Glucocorticoid receptor) was > 10 µM, the Activity (Rattus norvegicus [6]) was “Non-Toxic” and the AUC(0-t) at 24 h [7] was 1.16 µg·h/mL. It also gave a Cmax [8] of 0.265 µg/mL, a Tmax [9] of 0.5 h and an MRT [10] of 4.84 h. For the same compound, the concentration at 5 min [11] was 0.106 µg/mL, the microsomal CLint at 1 µM [12] was 5 µL/min/mg and the clearance [13] was 0.681 L/h/kg. It also gave a clearance [14] of 0.853 L/h/kg, a concentration at 5 min [15] of 0.0729 µg/mL and an MRT [16] of 2.32 h. The Vd [17] was 1.47 L/kg, the Activity (Rhesus monkey) was “Toxic” and the EC50 (Progesterone receptor) was > 10 µM. For the same compound, the concentration at 5 min [18] was 0.0708 µg/mL, the Vd [19] was 3.3 L/kg and the bioavailability [20] was 48.1%.
